tested on: Radical scavenging activity; test: Antioxidant activity assessed as DPPH radical scavenging activity after 30 mins by spectrophotometry; assay type: functional

Cc1c(O)cc(O)c2c1[C@@H](C)[C@H](C)O2 and Cc1c(C)c2c(c(C)c1O)CCC(C)(C(=O)O)O2 (stereo not given) [TROLOX] are within 1.5-fold of each other in IC50: 10.4 µM for the first, 8.77 µM for the second.

First: O=C1O[C@H]([C@@H](O)CO)C(O)=C1O [ASCORBIC ACID]
Second: O=C(O)c1cc(O)ccc1O [GENTISIC ACID]
The IC50 of the first is 2.1-fold higher: 8.92 µM for the first, 4.26 µM for the second. The second is the more potent here.

CC(C)(Sc1cc(C(C)(C)C)c(O)c(C(C)(C)C)c1)Sc1cc(C(C)(C)C)c(O)c(C(C)(C)C)c1 [PROBUCOL] was tested, and the IC50 was 36.1 µM.
